# Reference: ChEMBL document CHEMBL3885881, “DrugMatrix”
# Where “and” joins values, the source holds several entries; their conditions need not be identical. Equal entries are not always repeated.
# Species: Rattus norvegicus
# Type: toxicity, organism-based, Sprague-Dawley
# Settings: in vivo, sc, 24 h, route mini-PUMP - SUBCUTANEOUS, time 1 day, vehicle 100 % SALINE; for ALBUMIN / ALKALINE PHOSPHATASE / ASPARTATE AMINOTRANSFERASE / BLOOD UREA NITROGEN / CARBON DIOXIDE / CHOLESTEROL / CREATINE PHOSPHOKINASE / CREATININE / GLUCOSE / LACTATE DEHYDROGENASE / PHOSPHORUS / POTASSIUM / SODIUM / TOTAL BILIRUBIN / URIC ACID: tissue Plasma
# [1] = 0 mg/kg, vehicle control, tissue Blood, dose level Control
# [2] = 0 mg/kg, vehicle control, dose level Control
# [3] = 0.5 mg/kg, tissue Blood, dose level High
# [4] = […], tissue Blood, dose 0.72 mg/Kg, dose level High
# [5] = […], dose 0.72 mg/Kg, dose level High
# Description: DrugMatrix - Regimen: Single
smiles,measurement,setting,value
CC[C@H](C)[C@H](NC(=O)[C@H](Cc1ccc(O)cc1)NC(=O)[C@@H](NC(=O)[C@H](CCCNC(=N)N)NC(=O)[C@@H](N)CC(=O)O)C(C)C)C(=O)N[C@@H](Cc1cnc[nH]1)C(=O)N1CCC[C@H]1C(=O)N[C@@H](Cc1ccccc1)C(=O)O [ANGIOTENSIN II],ABSOLUTE SEGMENTED NEUTROPHIL,[1],1753.5 CELLS/uL
same,BASOPHIL,[1],0.4% and 0%
same,EOSINOPHIL,[1],0.3% and 0.17%
same,ERYTHROCYTE COUNT,[1],6.25 x10E6/uL and 5.64 x10E6/uL
same,HEMATOCRIT,[1],41.8% and 34.52%
same,HEMOGLOBIN,[1],13.33 G/DL and 12.68 G/DL
same,LEUKOCYTE COUNT,[1],11.55 x10E3/uL and 13 x10E3/uL
same,MEAN CORPUSCULAR HEMOGLOBIN,[1],21.37 pg and 22.5 pg
same,MEAN CORPUSCULAR HEMOGLOBIN CONCENTRATION,[1],31.93 G/DL and 36.78 G/DL
same,MEAN CORPUSCULAR VOLUME,[1],66.93 fL and 61.18 fL
same,MONOCYTE,[1],2.4% and 1.83%
same,NEUTROPHIL,[1],23.4% and 13.5%
same,NUCLEATED RED BLOOD CELLS,[1],0.17 /100WBC
same,PLATELET COUNT,[1],1265.33 x10E3/uL and 679.17 x10E3/uL
same,ALBUMIN,[2],3.63 G/DL and 3.77 G/DL
same,ALKALINE PHOSPHATASE,[2],385.33 u/L and 291.17 u/L
same,ASPARTATE AMINOTRANSFERASE,[2],79.33 u/L and 74.5 u/L
same,BLOOD UREA NITROGEN,[2],13.33 mg/dL and 15.33 mg/dL
same,CARBON DIOXIDE,[2],40.67 mmol/L and 30 mmol/L
same,CHOLESTEROL,[2],86.33 mg/dL and 65.33 mg/dL
same,CREATINE PHOSPHOKINASE,[2],190.33 u/L
same,CREATININE,[2],0.4 mg/dL and 0.15 mg/dL
same,GLUCOSE,[2],165.67 mg/dL and 179.83 mg/dL
same,LACTATE DEHYDROGENASE,[2],103.33 u/L and 162.67 u/L
same,PHOSPHORUS,[2],11.7 mg/dL and 12.2 mg/dL
same,POTASSIUM,[2],5.5 MEQ/L and 5.73 MEQ/L
same,SODIUM,[2],145 MEQ/L and 144.7 MEQ/L
same,TOTAL BILIRUBIN,[2],0.27 mg/dL and 0.15 mg/dL
same,URIC ACID,[2],1 mg/dL and 1.93 mg/dL
same,ABSOLUTE BASOPHIL,[3],13.3 cells/µL
same,ABSOLUTE EOSINOPHIL,[3],46.7 cells/µL
same,ABSOLUTE LYMPHOCYTE,[3],5400 cells/µL
same,ABSOLUTE MONOCYTE,[3],230 cells/µL
same,BASOPHIL,[3],0.13%
same,EOSINOPHIL,[3],0.6%
same,ERYTHROCYTE COUNT,[3],6.26 x10E6/uL
same,HEMATOCRIT,[3],42.23%
same,HEMOGLOBIN,[3],13.53 G/DL
same,LEUKOCYTE COUNT,[3],7.88 x10E3/uL
same,MEAN CORPUSCULAR HEMOGLOBIN,[3],21.63 pg
same,MEAN CORPUSCULAR HEMOGLOBIN CONCENTRATION,[3],32.03 G/DL
same,MEAN CORPUSCULAR VOLUME,[3],67.47 fL
same,MONOCYTE,[3],2.8%
same,NEUTROPHIL,[3],26.93%
same,PLATELET COUNT,[3],1308.33 x10E3/uL
same,ALBUMIN,"0.5 mg/kg, dose level High",3.93 G/DL
same,ALKALINE PHOSPHATASE,"0.5 mg/kg, dose level High",341.33 u/L
same,ASPARTATE AMINOTRANSFERASE,"0.5 mg/kg, dose level High",74 u/L
same,BLOOD UREA NITROGEN,"0.5 mg/kg, dose level High",14 mg/dL
same,CARBON DIOXIDE,"0.5 mg/kg, dose level High",42.67 mmol/L
same,CHOLESTEROL,"0.5 mg/kg, dose level High",106.33 mg/dL
same,CREATINE PHOSPHOKINASE,"0.5 mg/kg, dose level High",299.33 u/L
same,CREATININE,"0.5 mg/kg, dose level High",0.5 mg/dL
same,GLUCOSE,"0.5 mg/kg, dose level High",169.33 mg/dL
same,LACTATE DEHYDROGENASE,"0.5 mg/kg, dose level High",65.33 u/L
same,PHOSPHORUS,"0.5 mg/kg, dose level High",11.73 mg/dL
same,POTASSIUM,"0.5 mg/kg, dose level High",5.2 MEQ/L
same,SODIUM,"0.5 mg/kg, dose level High",146.33 MEQ/L
same,TOTAL BILIRUBIN,"0.5 mg/kg, dose level High",0.2 mg/dL
same,URIC ACID,"0.5 mg/kg, dose level High",0.93 mg/dL
same,ABSOLUTE EOSINOPHIL,[4],30.33 CELLS/uL
same,ABSOLUTE LYMPHOCYTE,[4],10495 CELLS/uL
same,ABSOLUTE MONOCYTE,[4],212 CELLS/uL
same,ABSOLUTE SEGMENTED NEUTROPHIL,[4],2262.67 CELLS/uL
same,BASOPHIL,[4],0%
same,EOSINOPHIL,[4],0.33%
same,ERYTHROCYTE COUNT,[4],6.56 x10E6/uL
same,HEMATOCRIT,[4],38.97%
same,HEMOGLOBIN,[4],14.37 G/DL
same,LEUKOCYTE COUNT,[4],13 x10E3/uL
same,MEAN CORPUSCULAR HEMOGLOBIN,[4],21.9 pg
same,MEAN CORPUSCULAR HEMOGLOBIN CONCENTRATION,[4],36.87 G/DL
same,MEAN CORPUSCULAR VOLUME,[4],59.37 fL
same,MONOCYTE,[4],1.67%
same,NEUTROPHIL,[4],17.67%
same,NUCLEATED RED BLOOD CELLS,[4],0.33 /100WBC
same,PLATELET COUNT,[4],1167.67 x10E3/uL
same,ALBUMIN,[5],4 G/DL
same,ALKALINE PHOSPHATASE,[5],462 u/L
same,ASPARTATE AMINOTRANSFERASE,[5],98.67 u/L
same,BLOOD UREA NITROGEN,[5],19 mg/dL
same,CARBON DIOXIDE,[5],32 mmol/L
same,CHOLESTEROL,[5],87 mg/dL
same,CREATININE,[5],0.14 mg/dL
same,GLUCOSE,[5],171 mg/dL
same,LACTATE DEHYDROGENASE,[5],143.33 u/L
same,PHOSPHORUS,[5],13.13 mg/dL
same,POTASSIUM,[5],6.48 MEQ/L
same,SODIUM,[5],141.6 MEQ/L
same,TOTAL BILIRUBIN,[5],0.2 mg/dL
same,URIC ACID,[5],2.37 mg/dL
